Source: patent US20240158457A1, “INTERLEUKIN-18 RECEPTOR BINDING POLYPEPTIDES AND USES THEREOF” (Medikine, Inc., priority 2022, published 2024)
Where a SMILES comes first, the peptide text is derived from it. Bridges are numbered along the chain shown (N, C = ends).

Tests used:
[1] = biological target: T1, IL-18 Binding Protein (IL-18BP) (Homo sapiens, UniProt O95998); test: Direct binding ELISA for IL-18BP; details: C-terminally biotinylated forms of peptides; at up to 100 nM IL-18BP
T1 construct: purchased ACROBiosystems (Acro); R&D Systems ILP-H5253; 119-BP
T1 sequence (O95998 31-194): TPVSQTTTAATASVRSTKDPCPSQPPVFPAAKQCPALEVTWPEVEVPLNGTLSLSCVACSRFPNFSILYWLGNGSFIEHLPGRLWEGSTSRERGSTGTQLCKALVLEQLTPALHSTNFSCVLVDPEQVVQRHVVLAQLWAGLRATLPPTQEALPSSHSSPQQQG
Description: Binding of synthetic monomer peptides to IL-18 Binding Protein (IL-18BP) was measured using a direct binding ELISA. Briefly, 96-well ELISA plates were coated with NeutrAvidin (NA) at 5 μg per well in PBS, washed, then blocked with PBS containing 1% BSA. Wells were washed and representative peptides, synthesized with a C-terminal biotin were diluted to 300 nM in assay buffer and added to the NA coated wells. Wells were washed and serial dilutions starting at 100 nM of IL-18R subunits, IL-18BP from either of two sources (Acro #ILP-H5253 and R&D #119-BP), and control IgG Fc fusions) were added to the wells and incubated for 1 hr at 4° C. Then plates were washed and goat anti-human IgG Fc-HRP (Southern Biotech #2048-05) detection antibody was added for 1 hr. Wells were developed with TMB for 5-15 min and the enzyme reaction was stopped with a H2SO4 solution.

[2] = biological target: T2, IL-18R (Homo sapiens, UniProt O95256+Q13478); test: HEK-BLUE IL18R reporter assay for IL-18BP/IL-18 interaction (agonist activity with and without IL-18BP); format: cell-based; details: IL-18BP up to 100 nM; 30 nM dimer 10; FIG. 22B
T2 construct: host or cells: HEK293 (HEK-BLUE IL-18 reporter cell line)
T2 sequence (Q13478 19-541): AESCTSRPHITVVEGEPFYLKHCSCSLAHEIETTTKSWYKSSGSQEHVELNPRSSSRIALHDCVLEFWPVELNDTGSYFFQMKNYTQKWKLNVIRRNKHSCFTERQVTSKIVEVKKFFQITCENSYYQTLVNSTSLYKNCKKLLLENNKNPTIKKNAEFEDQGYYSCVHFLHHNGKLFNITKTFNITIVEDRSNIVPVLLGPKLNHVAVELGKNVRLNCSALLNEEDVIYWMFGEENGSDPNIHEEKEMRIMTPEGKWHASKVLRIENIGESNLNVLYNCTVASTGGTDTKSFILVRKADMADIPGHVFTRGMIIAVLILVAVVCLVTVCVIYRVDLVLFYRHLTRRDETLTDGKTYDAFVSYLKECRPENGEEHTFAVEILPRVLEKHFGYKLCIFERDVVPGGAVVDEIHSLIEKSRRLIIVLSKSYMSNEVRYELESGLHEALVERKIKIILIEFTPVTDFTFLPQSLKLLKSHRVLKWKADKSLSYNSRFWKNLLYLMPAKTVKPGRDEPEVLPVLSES
T2 sequence (O95256 20-599): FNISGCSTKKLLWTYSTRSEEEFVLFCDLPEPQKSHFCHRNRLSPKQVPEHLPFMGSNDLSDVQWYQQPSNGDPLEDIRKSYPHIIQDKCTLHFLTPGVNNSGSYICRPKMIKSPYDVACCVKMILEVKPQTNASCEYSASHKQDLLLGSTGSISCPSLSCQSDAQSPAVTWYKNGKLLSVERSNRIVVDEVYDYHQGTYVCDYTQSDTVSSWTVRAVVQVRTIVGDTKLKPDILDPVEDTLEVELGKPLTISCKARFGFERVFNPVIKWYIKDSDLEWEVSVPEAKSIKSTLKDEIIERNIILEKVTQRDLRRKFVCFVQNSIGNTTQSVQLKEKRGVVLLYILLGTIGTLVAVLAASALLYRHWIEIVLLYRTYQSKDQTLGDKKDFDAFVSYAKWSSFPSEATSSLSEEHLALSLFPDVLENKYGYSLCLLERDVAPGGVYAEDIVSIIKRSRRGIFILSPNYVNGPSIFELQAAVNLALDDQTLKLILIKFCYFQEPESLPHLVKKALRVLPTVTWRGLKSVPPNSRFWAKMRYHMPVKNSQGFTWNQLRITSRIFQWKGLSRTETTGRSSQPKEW
Description: IL-18 is negatively regulated by a decoy receptor called IL-18 binding protein (IL-18BP), a secreted antagonist that binds IL-18 with extremely high affinity. HEK-BLUE™ IL-18 reporter cell line (InvivoGen #hkb-hmil 18, California, USA) was used to determine the impact of heterodimer peptides composed of IL-18Ra and IL-18Rb binding peptides on the IL-18BP/IL-18 interaction. The IL-18 Reporter assay, as described in detail in Example 2, was used to investigate this interaction with the following modifications.
A serial dilution (7-point, 10-fold) of IL-18BP Fc fusion (Acro #ILP-H5253) starting at 2 μM (20-fold final concentration) was prepared in test medium in a v-bottom polypropylene 96-well plate. Human recombinant IL-18 (R&D Systems #9124-IL-050/CF) and a representative peptide agonist were prepared at 30 pM and 600 nM respectively (both at 20-fold final concentration and at approximately their respective EC70s). […] Absorbance signal at 630 nm was then measured on a plate reader. Half maximal inhibition concentration (IC50) was calculated based on a variable slope and four parameter analysis using GraphPad Prism software. When no inhibition was measured the data points were connected without a curve fit. Absorbance readings were converted to percent total of signal span, for IL-18 and peptide agonist respectively, and graphed as NF-κB reporter activity (% max).

Molecule	binding to IL-18BP [1]	inhibition of agonist activity by IL-18BP [2]
CC[C@H](C)[C@@H]1NC(=O)[C@H](CCC(=O)O)NC(=O)[C@H](CO)NC(=O)[C@H](CC(C)C)NC(=O)[C@H](Cc2c[nH]cn2)NC(=O)[C@H](CC(=O)O)NC(=O)[C@H](CO)NC(=O)[C@H](CC(C)C)NC(=O)[C@H](Cc2c[nH]c3ccccc23)NC(=O)[C@H](CC(N)=O)NC(=O)[C@@H]2CCCN2C(=O)[C@@H](NC(=O)CNC(=O)CN)CSSC[C@@H](C(=O)NCC(=O)NCC(=O)O)NC(=O)[C@H](Cc2c[nH]c3ccccc23)NC1=O [Dimer 5C09, GGCPNWLSDHLSEIWCGG] (H-GGCPNWLSDHLSEIWCGG-OH; disulfide 3-16; N-terminus and C-terminus assumed)	did not exhibit binding	
CC[C@H](C)[C@H](NC(=O)[C@@H]1CSSC[C@H](NC(=O)[C@H](CCC(=O)O)NC(=O)[C@H](Cc2ccccc2)NC(=O)[C@H](Cc2ccccc2)NC(=O)CNC(=O)CNC(=O)[C@H](CO)NC(=O)CNC(=O)CCc2cn(CC[C@H](NC(=O)[C@H](CC(C)C)NC(=O)[C@@H]3CSSC[C@H](NC(=O)[C@H](CC(C)C)NC(=O)CNC(=O)CN)C(=O)N[C@@H](Cc4c[nH]c5ccccc45)C(=O)N[C@@H](Cc4ccc(O)cc4)C(=O)N[C@@H](Cc4ccccc4)C(=O)NCC(=O)NCC(=O)N[C@@H]([C@@H](C)O)C(=O)N[C@@H](C(C)C)C(=O)N[C@@H](CCCNC(=N)N)C(=O)NCC(=O)N4CCC[C@H]4C(=O)N3)C(N)=O)nn2)C(=O)N[C@@H](Cc2ccccc2)C(=O)N[C@@H](Cc2ccc(O)cc2)C(=O)N[C@@H](CO)C(=O)N2CCC[C@H]2C(=O)NCC(=O)N[C@@H](Cc2c[nH]cn2)C(=O)N[C@@H](CCC(=O)O)C(=O)N[C@@H](Cc2c[nH]c3ccccc23)C(=O)N1)C(=O)N1CCC[C@H]1C(=O)N[C@@H](CO)C(=O)NCC(=O)NCC(N)=O [Dimer 10]		does not inhibit
CC(C)C[C@H](NC(=O)CNC(=O)CN)C(=O)N[C@H]1CSSC[C@@H](C(=O)N[C@@H](CC(C)C)C(=O)NCC(=O)NCC(=O)O)NC(=O)[C@@H]2CCCN2C(=O)CNC(=O)[C@H](CCCNC(=N)N)NC(=O)[C@H](C(C)C)NC(=O)[C@H]([C@@H](C)O)NC(=O)CNC(=O)CNC(=O)[C@H](Cc2ccccc2)NC(=O)[C@H](Cc2ccc(O)cc2)NC(=O)[C@H](Cc2c[nH]c3ccccc23)NC1=O [Family 2 synthetic construct, GGLCWYFGGTVRGPCLGG] (H-GGLCWYFGGTVRGPCLGG-OH; disulfide 4-15; N-terminus and C-terminus assumed)	did not exhibit binding	
GGELCWRPFSFVDCEEGG [alpha Synthetic Fla Consensus Construct]	did not exhibit binding	
